In patent US11760984B2, “CRISPR protein inhibitors” (THE BROAD INSTITUTE, INC., priority 2017, dated 2023):

Legend:
SpCas9 = SpCas9 (Streptococcus pyogenes serotype M1, UniProt Q99ZW2); experiment: Cas9 nuclease activity in EGFP disruption assay (U2OS.eGFP.PEST cells); format: cell-based; design: host or cells: U2OS.eGFP-PEST; conditions: 10 μM
Procedure: (§1) Cas9 Nuclease activity in EGFP disruption assay. Approximately 200,000 U2OS.eGFP-PEST cells were nucleofected with 400 ng of SpCas9 (Addgene Plasmid #43861) and 40 ng of sgRNA (pFYF1320 EGFP Site #1, Addgene Plasmid #47511) expressing plasmids along with a Td-tomato-encoding plasmid using the SE Cell Line 4D-Nucleofector™ X Kit (Lonza) according to the manufacturer's protocol. Approximately 20,000 transfected cells/well in 3 replicates were plated in a 96-well plate (Corning® 3904). Cells were allowed to grow in the indicated amount of compound or DMSO for 24 h post transfection. Cells were then fixed using 4% paraformaldehyde and imaged with the HCS NuclearMask™ Blue Stain (Life Technologies) as the nuclear counter-staining agent. Imaging was performed with an IXM 137204 ImageXpress Automated High Content Microscope (Molecular Devices) at 10× magnification under three excitation channels (blue, green and red) with 9 acquiring sites per well. Images were analyzed in the MetaXpress software and data were plotted using GraphPad Prism 6. The Z′-value was calculated following the formula: […]
Cas9 Nuclease activity in EGFP disruption assay. In some embodiments, a quantitative human cell-based reporter assay that enables rapid quantitation of targeted nuclease activities is used to characterize off-target cleavage of CRISPR protein-based RNA guided endonucleases. In this assay, the activities of nucleases targeted to a single integrated EGFP reporter gene can be quantified by assessing loss of fluorescence signal in human U2OS.EGFP cells caused by inactivating frameshift insertion/deletion (indel) mutations introduced by error prone non-homologous end-joining (NHEJ) repair of nuclease-induced double-stranded breaks (DSBs).
as §1, with “Approximately” for “Cas9 Nuclease activity in EGFP disruption assay. Approximately”

SpCas9:gRNA complex = molecular target: T1, SpCas9:gRNA complex (Streptococcus pyogenes serotype M1, UniProt Q99ZW2); experiment: 19F NMR binding assay; conditions: for Fractional Occupancy (1-Ibound/I0) / LW (linewidth of 19F signal): [Ligand] 50 μM
T1 construct: His6 (N, cleaved yes); made in house; host or cells: E. coli BL21 Star (DE3)
T1 sequence (Q99ZW2 whole entry, one chain of several): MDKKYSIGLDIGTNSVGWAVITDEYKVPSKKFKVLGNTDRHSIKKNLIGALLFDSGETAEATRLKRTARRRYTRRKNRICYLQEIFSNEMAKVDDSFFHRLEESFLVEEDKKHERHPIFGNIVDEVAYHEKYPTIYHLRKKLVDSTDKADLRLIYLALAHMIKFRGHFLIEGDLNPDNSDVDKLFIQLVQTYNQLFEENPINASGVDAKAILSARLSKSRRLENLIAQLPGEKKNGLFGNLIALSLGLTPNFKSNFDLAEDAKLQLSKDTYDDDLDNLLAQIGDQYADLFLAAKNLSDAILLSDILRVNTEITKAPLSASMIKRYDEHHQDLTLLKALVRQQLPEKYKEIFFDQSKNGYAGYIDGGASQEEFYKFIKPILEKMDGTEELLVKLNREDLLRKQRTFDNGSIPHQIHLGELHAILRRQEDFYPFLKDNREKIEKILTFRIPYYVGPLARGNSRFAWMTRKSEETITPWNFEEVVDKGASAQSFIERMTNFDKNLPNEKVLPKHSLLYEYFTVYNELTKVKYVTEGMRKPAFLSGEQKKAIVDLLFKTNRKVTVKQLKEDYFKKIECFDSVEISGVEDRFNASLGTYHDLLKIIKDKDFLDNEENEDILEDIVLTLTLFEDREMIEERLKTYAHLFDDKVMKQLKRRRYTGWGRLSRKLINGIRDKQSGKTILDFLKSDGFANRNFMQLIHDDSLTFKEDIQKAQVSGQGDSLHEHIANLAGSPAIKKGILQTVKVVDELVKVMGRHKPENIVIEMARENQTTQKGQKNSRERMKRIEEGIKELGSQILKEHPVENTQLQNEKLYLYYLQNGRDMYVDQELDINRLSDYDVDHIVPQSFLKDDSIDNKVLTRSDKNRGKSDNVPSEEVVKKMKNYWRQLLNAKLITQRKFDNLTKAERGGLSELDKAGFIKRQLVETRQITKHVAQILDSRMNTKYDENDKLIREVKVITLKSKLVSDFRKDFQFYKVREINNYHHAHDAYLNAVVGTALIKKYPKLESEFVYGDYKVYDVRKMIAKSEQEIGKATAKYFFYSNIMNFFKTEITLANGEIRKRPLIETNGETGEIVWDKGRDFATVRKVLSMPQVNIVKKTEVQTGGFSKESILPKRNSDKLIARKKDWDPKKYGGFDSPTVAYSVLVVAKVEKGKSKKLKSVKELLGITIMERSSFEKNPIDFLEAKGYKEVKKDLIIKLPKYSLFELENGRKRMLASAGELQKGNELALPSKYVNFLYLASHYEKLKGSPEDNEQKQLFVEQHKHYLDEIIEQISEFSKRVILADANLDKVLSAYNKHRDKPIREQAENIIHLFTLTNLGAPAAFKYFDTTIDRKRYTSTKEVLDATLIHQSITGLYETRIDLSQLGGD
Procedure: (§2) NMR binding assay. All samples were prepared with 50 μM BRD7087 in 20 mM Tris buffer (pH=7.4) with varying concentrations of SpCas9:gRNA in a 3 mm NMR tube. Experiments were performed on a 600 MHz (19F: 564.71 MHz) Bruker Avance III NMR spectrometer equipped with a 5 mm QCI-F CryoProbe and a SampleJet for automated sample handling. To acquire spectra, a standard one-pulse 19F experiment with WALTZ-16 for proton decoupling during acquisition, a 5 second recycle delay, and 256 scans was used. All spectra were recorded at 280 K. NMR data were apodized with a 1 Hz exponential function prior to Fourier transformation. All spectra were baseline corrected; peak widths and intensities were extracted using the automated line-fitting feature provided with the MNova software package. Determination of the value of Kd was accomplished using least squares fitting to the expression given in Equation 8 in the paper by Shortridge et al.2.
Kd values obtained by NMR rely on the assumption that ligand binding is in fast-exchange, which typically holds true for ligands with Kd in the 0.5 μM to 20 mM range.
as §2, with “(^19F:” for “(19F:”, “^19F” for “19F”, “al.^2.” for “al.2.”

Sequence of SpCas9 (Q99ZW2 whole entry): as the sequence (Q99ZW2 whole entry, one chain of several) above

For OC[C@H]1Nc2ccc(-c3cccc(F)c3)cc2[C@H]2[C@@H]1CCN2Cc1ccncc1 [BRD7087, ((3aR,4S,9bR)-8-(3-Fluorophenyl)-1-(pyridin-4-ylmethyl)-2,3,3a,4,5,9b-hexahydro-1H-pyrrolo[3,2-c]quinolin-4-yl)methanol], the inhibition at 10 µM (SpCas9) was 44%, the “inhibition of SpCas9 activity” value (SpCas9) was 44% and the Kd (SpCas9:gRNA complex; 50 μM ligand, 20 mM Tris pH 7.4, 280 K, read-out: binding constant Kd (method of Shortridge et al., peak intensities)) was ~2.2 µM. The “binding by differential line broadening of 19F signal” value (SpCas9:gRNA complex; 50 μM ligand, broadening from 0.75 μM SpCas9:gRNA) was “relatively tight binding”, the “Fractional Occupancy (1-Ibound/I0)” value (SpCas9:gRNA complex; [Protein:gRNA] 0.75 μM) was 0.1307 and the “LW (linewidth of 19F signal)” value (SpCas9:gRNA complex; [Protein:gRNA] 0.75 μM) was 4.3 Hz. The “Fractional Occupancy (1-Ibound/I0)” value (SpCas9:gRNA complex; [Protein:gRNA] 1.0 μM) was 0.1817, the “LW (linewidth of 19F signal)” value (SpCas9:gRNA complex; [Protein:gRNA] 1.0 μM) was 4.6 Hz and the “Fractional Occupancy (1-Ibound/I0)” value (SpCas9:gRNA complex; [Protein:gRNA] 1.25 μM) was 0.3042. The “LW (linewidth of 19F signal)” value (SpCas9:gRNA complex; [Protein:gRNA] 1.25 μM) was 5.3 Hz, the “Fractional Occupancy (1-Ibound/I0)” value (SpCas9:gRNA complex; [Protein:gRNA] 1.5 μM) was 0.3436 and the “LW (linewidth of 19F signal)” value (SpCas9:gRNA complex; [Protein:gRNA] 1.5 μM) was 5.9 Hz. The “Fractional Occupancy (1-Ibound/I0)” value (SpCas9:gRNA complex; [Protein:gRNA] 1.75 μM) was 0.4015 and the “LW (linewidth of 19F signal)” value (SpCas9:gRNA complex; [Protein:gRNA] 1.75 μM) was 6.3 Hz.
